From PMC2962730 (Journal of neurochemistry, 2010)
Substitutions are numbered along the chain they refer to. Entries after “also recorded” stand apart in the source; their conditions may differ.

Legend:
[1] = tested on: rat VAChT (rVAChT) W331 mutants; settings: mutations of W331 in rVAChT; ref Ojeda et al. 2004; cited from earlier work
VAChT F335A = settings: ref Ojeda et al. (2004); cited from earlier work
hVAChT W331L = target: T1, hVAChT W331L (Homo sapiens, UniProt Q16572, W331L); assay: [3H]ACh transport; format: biochemical
T1 sequence (Q16572 1-532 W331L): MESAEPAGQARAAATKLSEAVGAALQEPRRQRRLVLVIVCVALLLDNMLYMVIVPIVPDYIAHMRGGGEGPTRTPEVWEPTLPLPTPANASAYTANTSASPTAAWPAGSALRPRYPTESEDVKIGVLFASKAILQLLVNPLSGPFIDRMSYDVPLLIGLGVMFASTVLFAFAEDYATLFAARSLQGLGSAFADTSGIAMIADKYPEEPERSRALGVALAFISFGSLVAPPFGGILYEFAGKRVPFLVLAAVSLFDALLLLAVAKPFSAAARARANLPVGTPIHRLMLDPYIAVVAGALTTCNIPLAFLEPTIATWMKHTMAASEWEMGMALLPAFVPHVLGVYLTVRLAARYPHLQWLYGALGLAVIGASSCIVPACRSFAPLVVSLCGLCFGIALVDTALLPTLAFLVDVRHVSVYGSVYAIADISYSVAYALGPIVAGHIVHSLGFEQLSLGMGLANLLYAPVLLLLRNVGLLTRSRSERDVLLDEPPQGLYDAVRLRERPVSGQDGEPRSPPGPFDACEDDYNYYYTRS

hVAChT C388A = target: T2, hVAChT C388A (Homo sapiens, UniProt Q16572, C388A); assay: [3H]ACh transport; format: biochemical
T2 sequence (Q16572 1-532 C388A): T1 sequence (Q16572 1-532 W331L) with L331W, C388A

hVAChT K317A = target: T3, hVAChT K317A (Homo sapiens, UniProt Q16572, K317A); assay: [3H]ACh transport; format: biochemical
T3 sequence (Q16572 1-532 K317A): T1 sequence (Q16572 1-532 W331L) with K317A, L331W

hVAChT W325H = target: T4, hVAChT W325H (Homo sapiens, UniProt Q16572, W325H); assay: [3H]ACh transport; format: biochemical
T4 sequence (Q16572 1-532 W325H): T1 sequence (Q16572 1-532 W331L) with W325H, L331W

[2] = read-out: KM, Michaelis-Menten constant for ACh transport, pH 7.4

SMILES | effect on vesamicol affinity [1] | weaker binding of vesamicol (VAChT F335A) | Vmax/Bmax, ACh transport normalized to Bmax (hVAChT W331L; pH 7.4) [min⁻¹] | Km (hVAChT W331L; [2]) [µM] | Vmax/Bmax, ACh transport normalized to Bmax (hVAChT C388A; pH 7.4) [min⁻¹] | Km (hVAChT C388A; [2]) [µM] | Vmax/Bmax, ACh transport normalized to Bmax (hVAChT K317A; pH 7.4) [min⁻¹] | Km (hVAChT K317A; [2]) [µM] | Vmax/Bmax, ACh transport normalized to Bmax (hVAChT W325H; pH 7.4) [min⁻¹] | Km (hVAChT W325H; [2]) [µM]
O[C@@H]1CCCC[C@H]1N1CCC(c2ccccc2)CC1 (racemic) [vesamicol, ( )-trans-2-(4-phenylpiperidino)cyclohexanol] | no loss in affinity for vesamicol; also recorded: without affecting vesamicol affinity | ~ 3 fold | – | – | – | – | – | – | – | –
CC(=O)OCC[N+](C)(C)C [ACh, acetylcholine] | – | – | 6.2 ± 1.2 | 4600 ± 1500 | 12 ± 1 | 2300 ± 500 | 17.8 ± 3.9 | 3200 ± 1200 | 6.5 ± 1.1 | 480 ± 170
